Source: US8609718B2, “Pharmaceutical composition used in treatment of hyperproliferative skin conditions and malignant melanomas comprising pachastrissamine as active ingredient” (Catholic University Industry Academy Cooperation Foundation, priority 2009, dated 2013)

Legend:
AKT = assay: Western blotting of AKT phosphorylation; type: cell-based; conditions: HaCaT, B16F10, A375, 10 μg/ml pachastrissamine, FIGS. 3A, 3B
Protocol: HaCaT, B16F10 and A375 cell lines were cultured in the same manner as described in Example 1. […] 30 minutes later, and 60 minutes later, each of the cell lines was resuspended in RIPA buffer [12 mM EDTA, 137 mM NaCl, 20 mM Tris-HCl (pH 8.0), 1 mM Na3VO4 (Sigma-Aldrich, USA) 10 mM NaF (Sigma), 1 mM PMSF (Sigma), 1% Triton X-100, 10% glycerol, protease inhibiting cocktail (Roche, Germany)], and then put on ice for 30 minutes so that the cells can be completely lysed. The lysate was centrifuged at 14000 rpm for 30 minutes, and the supernatant was collected. A BCA protein analysis kit (Pierce, Rockford, Ill.) was used to determine the concentration of each sample, and the sample was subjected to electrophoresis (SDS-PAGE). Western blotting was carried out on the protein isolated by the electrophoresis. After electrophoresis of the sample, the protein was transferred to a polyvinylidene fluoride membrane (Pall Corporation). Then, after blocking the membrane at room temperature for one hour using 5% BSA solution (Amresco, USA), it was treated with primary antibodies and reaction was carried out for 12 hours at 4° C. The primary antibodies were AKT antibody and Actin antibody (Cell Signaling Technology, Beverly, Mass.), which are antibodies associated in cell proliferation-related signaling. After reaction with primary antibodies, it was washed for about 30 minutes and further reacted for 1 hour at room temperature by treating with HRP-conjugated secondary antibodies. Then, after washing sufficiently for over 30 minutes, protein was identified using an ECL detection kit (intron Biotechnology).

beta-catenin = assay: Beta-catenin protein in malignant melanoma cell line (FIG. 5B); type: cell-based

CCCCCCCCCCCCCC[C@@H]1OC[C@H](N)[C@@H]1O [pachastrissamine]
phosphorylation of AKT after 30 minutes (AKT; 5 μg/ml phytosphingosine, 30 minutes): reduction of phosphorylation of AKT
degree of AKT phosphorylation after 60 minutes (AKT; 60 minutes): increased
beta-catenin protein degradation in malignant melanoma cell line (beta-catenin): can induce the degradation of beta-catenin protein
